Here are results for five compounds from patent US9018175B2 (Takeda GmbH, priority 2009, dated 2015).

Test [1] deals with bleomycin-induced pulmonary fibrosis and pulmonary hypertension. Conditions: through inhibition of ROS generation and RhoA/Rho kinase activation (Hemnes et al. 2008); cited from earlier work.
Test [2] deals with patients with pulmonary fibrosis. Particulars: open-label trials (Ghofrani 2002; Collard 2007); cited from earlier work.
The subject of test [3] is bleomycin-induced lung fibrosis. Particulars: in-vivo, bleomycin-induced lung fibrosis model in mice (Cortijo et al. 2009); cited from earlier work.
A further test deals with T1, PDE4B1 (Homo sapiens, UniProt Q07343).
T1 construct: made in house; host or cells: SF21 insect cells (baculovirus; pCR-Bac vector)
Put plainly: Inhibition of PDE4B1 activity (SPA, [3H]cAMP). The class given is biochemical. Conditions: recombinant PDE4B1 expressed in SF21 cells; 0.5 pM [sic] cAMP; values given as bins; read-out: PDE4B1 inhibitory values measured as −logIC50 (converted). Summed up: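 Recombinant human PDE4B1 (Sf21 cell 1000 g supernatant) in 20 mM Tris pH 7.4, 0.1 mg/ml BSA, 5 mM Mg2+, […] with [3H]cAMP tracer, enzyme giving 10-20% conversion. After 5 min preincubation at 37 °C, 15 min reaction, stopped by SPA beads with IBMX; IC50 by non-linear regression.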

The next test addresses T2, human PDE5 (Homo sapiens, UniProt O76074).
T2 construct: from tissue; host or cells: human platelets from fresh donor blood (10,000 g supernatant of sonicated platelets)
Kind of test: Inhibition of PDE5 activity (SPA, [3H]cGMP, platelet lysate). The class given is biochemical. Particulars: PDE5 from human platelet lysate; values given as bins; read-out: PDE5A inhibitory values measured as −logIC50 (converted). In short, it runs like this: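 Human platelet lysate served as PDE5 source, with 1 μM motapizone and 10 nM PDE2 inhibitor present; […] plus [3H]cGMP tracer, pH 7.4, 5 mM Mg2+, 10-20% substrate turnover. After 5 min preincubation, 15 min at 37 °C, stopped with SPA beads and IBMX; IC50 by non-linear regression.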

T1 sequence (Q07343 whole entry): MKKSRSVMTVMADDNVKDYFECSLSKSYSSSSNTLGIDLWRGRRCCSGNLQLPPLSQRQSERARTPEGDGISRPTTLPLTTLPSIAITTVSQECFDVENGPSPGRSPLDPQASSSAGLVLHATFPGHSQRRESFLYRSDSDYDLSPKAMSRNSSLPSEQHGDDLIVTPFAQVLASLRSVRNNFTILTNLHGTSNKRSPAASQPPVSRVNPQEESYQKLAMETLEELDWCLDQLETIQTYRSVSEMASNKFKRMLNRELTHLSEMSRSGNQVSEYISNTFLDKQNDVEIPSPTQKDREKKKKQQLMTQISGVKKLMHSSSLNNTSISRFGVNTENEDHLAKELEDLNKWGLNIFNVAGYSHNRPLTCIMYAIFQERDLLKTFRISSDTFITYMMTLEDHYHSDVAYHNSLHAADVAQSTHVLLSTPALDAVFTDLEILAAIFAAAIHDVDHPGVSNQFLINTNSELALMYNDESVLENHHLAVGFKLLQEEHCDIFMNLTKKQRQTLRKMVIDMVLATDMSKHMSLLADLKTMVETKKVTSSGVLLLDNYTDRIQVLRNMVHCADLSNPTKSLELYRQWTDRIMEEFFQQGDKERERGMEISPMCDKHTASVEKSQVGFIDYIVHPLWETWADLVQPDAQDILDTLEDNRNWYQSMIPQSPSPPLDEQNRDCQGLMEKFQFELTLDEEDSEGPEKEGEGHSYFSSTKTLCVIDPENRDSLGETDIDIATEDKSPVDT

On to `CCCc1nn(C)c2c(=O)[nH]c(-c3cc(S(=O)(=O)N4CCN(C)CC4)ccc3OCC)nc12` [sildenafil], for which, in test [1], the “bleomycin-induced pulmonary fibrosis and pulmonary hypertension” value is “attenuates bleomycin-induced pulmonary fibrosis and pulmonary hypertension”. For the same compound, in test [2], the exercise tolerance entry is “increases exercise tolerance”; the “lung hemodynamic (vascular resistance and ventilation/perfusion matching)” value is reported as “improves lung hemodynamic”.
As to `O=C(Nc1c(Cl)cncc1Cl)c1ccc(OC(F)F)c(OCC2CC2)c1` [roflumilast], the fibrosis development result in test [3] is “inhibit fibrosis development”.
On to `CCOc1cc2c(cc1OC)C(c1ccc(C(=O)N3CCC(n4c(=O)c5sc(-c6ccccc6)cc5n(Cn5nnc(CC)n5)c4=O)CC3)cc1)=N[C@@H]1CCSC[C@H]21` [Example 57, 3-[1-({4-[(4aR,10bR)-9-ethoxy-8-methoxy-3,4,4a,10b-tetrahydro-1H-thiopyrano[4,3-c]isoquinolin-6-yl]phenyl}carbonyl)piperidin-4-yl]-1-[(5-ethyl-2H-tetrazol-2-yl)methyl]-6-phenylthieno[3,2-d]pyrimidine-2,4(1H,3H)-dione], for which the values for the IC50 at PDE4B1 and on human PDE5 were 1 to 10 nM and 10 to 100 nM, respectively.
`CCOc1cc2c(cc1OC)C(c1ccc(C(=O)N3CCC(n4c(=O)c5sc(-c6ccccc6)cc5n(Cc5ncn(C)n5)c4=O)CC3)cc1)=N[C@@H]1CCSC[C@H]21` [Example 52, 3-[1-({4-[(4aR,10bR)-9-ethoxy-8-methoxy-3,4,4a,10b-tetrahydro-1H-thiopyrano[4,3-c]isoquinolin-6-yl]phenyl}carbonyl)piperidin-4-yl]-1-[(1-methyl-1H-1,2,4-triazol-3-yl)methyl]-6-phenylthieno[3,2-d]pyrimidine-2,4(1H,3H)-dione]: the IC50 at PDE4B1 was less than 1 nM; on human PDE5, more than 100 nM.
As to `CCOc1cc2c(cc1OC)C(c1ccc(C(=O)N3CCC(n4c(=O)c5sc(-c6ccc(F)cc6OC)cc5n(Cc5nnn(CC)n5)c4=O)CC3)cc1)=N[C@@H]1CCSC[C@H]21` [Example 32, 3-[1-({4-[(4aR,10bR)-9-ethoxy-8-methoxy-3,4,4a,10b-tetrahydro-1H-thiopyrano[4,3-c]isoquinolin-6-yl]phenyl}carbonyl)piperidin-4-yl]-1-[(2-ethyl-2H-tetrazol-5-yl)methyl]-6-(4-fluoro-2-methoxyphenyl)thieno[3,2-d]pyrimidine-2,4(1H,3H)-dione], the IC50 on PDE4B1 was 1 to 10 nM; at human PDE5, less than 10 nM.
